These results are taken from patent US20240122872A1, “COMPOSITIONS AND METHODS FOR TREATMENT OF MICROBIAL INFECTIONS” (EpiTop, Inc., priority 2022, published 2024).

The subject of assay [1] is Streptococcus pyogenes (ATCC BAA-19615). Put plainly: Bactericidal assay (colony count), S. pyogenes. As to conditions: 2 hours at 37° C.; concentration as low as 0.0001%; thujopsene (0.001%), totarol (0.0001%) or combination.
In assay [2] the test system is HSV-1. As to the kind of experiment: HSV-1 plaque assay (virus incubated with thujopsene, BS-C-1 cells). The format is cell-based. The protocol: BS-C-1 African green monkey kidney cells were seeded at 2×10^5 cells/well in 24 well plates (Becton Dickinson, Torreyana, CA) and allowed to grow to confluence overnight at 37° C., 5% CO2 in Earle's MEM with 10% fetal calf serum (FCS). To examine the effects of thujopsene, 0, 0.01, and 0.02% of thujopsene were incubated with […] HSV-1 for 2 or 4 hours, at 37° C. and 5% CO2. For the plaque assay, the medium was removed and wells were overlaid with 0.5 ml 4% buffered formalin, allowed to fix for 10 minutes at room temperature. The formalin was removed and 0.5 ml 0.1% crystal violet in PBS was added to the wells for 5 minutes at room temperature. Wells were then aspirated and the air-dried for visualization of plaques.

Assay [3] relates to Vaccinia virus (VV). It is filed as cell-based.
Assay [4] deals with coronavirus 229E (VR-740). Put plainly: Coronavirus 229E-mediated destruction of human fibroblasts (microscopy). It is filed as cell-based. Conditions: 229E 0.05 pfu/cell, 3 days or 5 days. How it is done: Normal human lung fibroblst (ATCC.org, CCL-191) were seeded at 1×10^5 cells/well in 24 well plates (Becton Dickinson, Torreyana, CA) and allowed to grow to confluence overnight at 37° C., 5% CO2 in Earle's MEM with 10% fetal calf serum (FCS). To examine whether thujopsene prevents coronavirus (229E)-induced destruction of fibroblast, fibroblasts were incubated with thujopsene (0.00, 0.01 or 0.02%) and 229E (0.05 pfu/cell) for 3 days or 5 days at 37° C. and 5% CO2. Then cell images (x25 magnification) were taken with the microscopy (Leica, Wetzler, Germany).

The subject of assay [5] is coronavirus (229E-VR740). As to the kind of experiment: Relative gene expression of coronavirus 229E in human fibroblasts (real time RT-PCR). Conditions: 0.01% or 0.02% thujopsene, 24 hours. It is filed as cell-based. The protocol: Human fibroblasts (Atcc.org, CCL-191) were treated with coronavirus (229E) and 0.01% or 0.02% of thujopsene for 24 hours, and then RNAs were isolated and PCRs were performed. Total RNA was isolated according to manufacturer's guidelines. RNeasy Mini Kits (Qiagen, Germantown, MD) were used according to the manufacturer's protocol to isolate RNA. RNA was reverse transcribed into cDNA using SuperScript® VILO™ MasterMix according to manufacturer's protocol and DNA was isolated according to manufacturer's guidelines. cDNAs were analyzed by real time RT-PCR by using an ABI Prism 7300 sequence detector.

Like-named read-outs stand apart in the source and are kept apart here.

As for `CC1=CC[C@]2(C)CCCC(C)(C)[C@@]23C[C@@H]13` [thujopsene], the “Inhibition of S. Pyogenes” value in assay [1] was “significantly inhibited”. Besides, the “Decrease of titers of virus” value in assay [2] (2-hour incubation with 0.01% thujopsene) is “at least 90%”; in assay [2] (2-hour incubation with 0.01% thujopsene (first statement)) it was “at least 50%”; in assay [2] (4-hour incubation with 0.01% thujopsene) it was “at least 90%”; in assay [3] (2-hour incubation with 0.02% thujopsene), “at least 25%”; in assay [3] (4-hour incubation with 0.02% thujopsene), “at least 25%”. The “Cellular structure of fibroblasts after treatment with coronavirus 229E” value in assay [4] (0.01% thujopsene) and in assay [4] (0.02% thujopsene) was “the cellular structures were maintained” throughout. Also, the “Relative gene expression of 229E (coronavirus VR740)” value in assay [5] (0.01 pfu/cell) and in assay [5] (0.05 pfu/cell) was “decreased in a dose-dependent manner” each time.

Turning to `CC(C)c1c(O)ccc2c1CC[C@H]1C(C)(C)CCC[C@]21C` [totarol], the “Inhibition of S. Pyogenes” value in assay [1] was “significantly inhibited”.
